Measurements taken from PubChem BioAssay (NCI).
“And” between values parts separate entries of the source, which are not always exact repeats. Equal values may be shown once.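 Interpolation was linear, between the two tested concentrations surrounding the appropriate level; five concentrations were tested over 48 hours in 96-well plates. The concentration for 50% growth inhibition is given as GI50. At the TGI there is no net growth.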

Assays:
Assay in all cases: growth of human tumour cells (NCI), 48 h
SK-MEL-5 melanoma = tested on: SK-MEL-5 melanoma
NCI/ADR-RES ovarian = tested on: NCI/ADR-RES ovarian
RXF 393 renal = tested on: RXF 393 renal
HCC-2998 colon = tested on: HCC-2998 colon
MALME-3M melanoma = tested on: MALME-3M melanoma
EKVX NSCLC = tested on: EKVX NSCLC
OVCAR-4 ovarian = tested on: OVCAR-4 ovarian
OVCAR-3 ovarian = tested on: OVCAR-3 ovarian
A549 NSCLC = tested on: A549 NSCLC
NCI-H23 lung = tested on: NCI-H23 lung

Compound	GI50 (SK-MEL-5 melanoma)	TGI (SK-MEL-5 melanoma)	GI50 (NCI/ADR-RES ovarian) [µM]	TGI (NCI/ADR-RES ovarian) [µM]	GI50 (RXF 393 renal) [µM]	TGI (RXF 393 renal) [µM]	GI50 (HCC-2998 colon) [µM]	TGI (HCC-2998 colon) [µM]	GI50 (MALME-3M melanoma)	TGI (MALME-3M melanoma)	GI50 (EKVX NSCLC) [µM]	TGI (EKVX NSCLC) [µM]	GI50 (OVCAR-4 ovarian) [µM]	TGI (OVCAR-4 ovarian) [µM]	GI50 (OVCAR-3 ovarian) [µM]	TGI (OVCAR-3 ovarian) [µM]	GI50 (A549 NSCLC) [µM]	TGI (A549 NSCLC) [µM]	GI50 (NCI-H23 lung) [µM]	TGI (NCI-H23 lung) [µM]
Cc1cc(I)cc(CN(C)CCCCN2CCCC2)c1O	12.7 µM	25.2 µM	35.2	> 100	11.8	31.8	18	36.3	19.7 µM	36.1 µM	34.8	> 100	41.6	> 100	33.5	> 100	30.7	> 100	34.7	> 100
C[C@@H]1CC[C@H]2C(CN3CCN(CC4=C(C(F)(F)F)O[C@@H]5O[C@@]6(C)CC[C@H]7[C@H](C)CC[C@@H]4[C@@]57OO6)CC3)=C(C(F)(F)F)O[C@@H]3O[C@@]4(C)CC[C@@H]1[C@]32OO4	2.96 µM	> 100 µM	> 100	> 100	1.05	> 54.3	10.5	> 100	2.23 µM	> 25.8 µM	3.14	> 100	3.17	> 100	1.84	> 24.9	3.31	> 100	2.07	> 100
O=c1c2c(=NCCCN3CCCC3)cc3c(=O)n(CCCN4CCCC4)c(=O)c4c(NCCCN5CCCC5)cc(c(O)n1CCCN1CCCC1)c2c4-3	2.67 µM	7.17 µM	20.2	> 100	2.83	8.23	6.84	23.1	2.73 µM	7.98 µM	2.79	12.9	2.73	–	2.88	7.03	1.45	3.84	5.43	24.1
COCCn1cc(-c2csc(-c3c[nH]c4ccc(F)cc34)n2)c2cccnc21	2.69 µM	> 100 µM	2.17	29.2	5.91	> 100	4.54	> 100	4.54 µM	> 100 µM	1.98	> 100	2.59	> 100	3.34	> 100	4.51	> 100	3.88	> 100
Cc1[nH]nc(C(=O)N/N=C/c2cccs2)c1N=NN(C)C	–	50.2 µM	–	> 100	–	36	–	26.6	–	56.7 µM	–	> 100	–	31	–	> 100	–	52.7	–	> 100
Cc1ccc(Nc2ccnc(Nc3cccc(C(N)=O)c3)n2)cc1O	6.63 µM	> 21.6 µM	> 18.7	> 25	0.895	4.84	12.6	> 25	6.27 µM	> 25 µM	9.2	> 25	6.19	> 25	6.65	> 25	8.44	> 25	9.44	> 25
CC(C)=CCC[C@](C)(O)[C@H]1CC[C@]2(C)[C@@H]1CC[C@@H]1[C@@]3(C)CC[C@H](OC(=O)CCC(=O)O)C(C)(C)[C@@H]3CC[C@]12C	17.8 µM	43.2 µM	30.4	> 100	17.4	85	30.6	> 100	16.8 µM	38.6 µM	37.9	> 100	27.6	> 100	15.9	30.9	32.3	> 100	30.8	> 100
COc1cc(C=NCC(=O)CSC(c2ccccc2)c2ccccc2)cc(OC)c1OC	11.8 µM	24.4 µM	7.36	> 100	23.7	96.4	23	57.3	16.8 µM	61.7 µM	27.8	> 100	5.18	64.4	13.3	> 100	7.7	> 100	26	> 100
CC(Cl)CC(=O)Nc1ccc2c(c1)oc(=O)c1cc(NC(=O)CC(C)Cl)ccc12 (stereo not drawn)	11.5 µM	27.9 µM	12.4	51	0.762	22	34.9	> 100	4.28 µM	21.3 µM	27	88	11.3	29.4	14.3	31.1	8	22.2	50	> 100
CCNC1=CC(=O)c2ncccc2C1=O	0.298 µM	1.11 µM	3.75	28.2	5.65	17.9	2.16	5.37	1.03 µM	2.23 µM	4.68	18.5	1.64	8.12	0.807	5.41	1.2	3.38	0.504	2.53
COc1cc(C(=O)c2c(-c3ccccc3)oc3ccccc23)cc(OC)c1O	2.57 µM	12.6 µM	0.876	20	1.76	8.95	5.2	20.4	1.13 µM	20.5 µM	3.85	58.2	5.46	24.4	1.11	5.21	4.41	> 100	3.96	22.6
COc1ccc2c3c([nH]c2c1)[C@H]1C[C@H]2[C@H](C[C@@H](O)[C@H](OC)[C@H]2C(=O)O)CN1CC3	–	> 100 µM	–	> 100	–	> 100	–	> 100	–	> 100 µM	–	> 100	–	> 100	–	> 100	–	> 100	–	> 100
Nc1ccccc1C#Cc1ccccc1C#CCCCCO	31.5 µM	94.3 µM	14.4	39.4	5.73	26.1	14.6	30.1	12.4 µM	44.4 µM	29.1	96.7	34.1	70.6	25.7	63.4	18	45	24.4	58.1
COCCOCCOCCOCCOc1ccc2c(c1)C(=O)c1nc3ncccc3c(=O)n1-2	0.158 µM	0.312 µM	2.09	6.41	2.65	9.26	1.32	2.79	0.155 µM	0.339 µM	1.87	5.28	1.74	4.23	0.969	3.39	0.465	2.41	0.279	1.18
C1CCN2CC34CC(CC5CCCN(C6CCCC3N6)C54)C2C1 (stereo not drawn)	–	> 100 µM	–	> 100	–	> 100	–	> 100	–	> 100 µM	–	> 100	–	> 100	–	> 100	–	> 100	–	> 100
O=C(/C=C/c1cccs1)Nc1ncc(Cc2ccccc2F)s1	0.242 µM	> 100 µM	0.246	> 100	0.192	0.508	0.463	> 100	0.359 µM	> 100 µM	0.412	> 100	0.791	> 100	0.216	0.671	0.48	> 100	2.78	> 100
O=C(O)C(O)C(O)C1[O][Sb][O]C1CO (stereo not drawn)	27.2 µM and 12.7 µM	> 100 µM and 30.7 µM	> 100	> 100	> 100	> 100	> 100	> 100	23.6 µM and 7.62 µM	68.3 µM and 23.6 µM	> 100	> 100	> 100	> 100	> 100	> 100	> 100	> 100	> 100	> 100
Fc1cc(Nc2ccc3c(OCCCN4CCOCC4)cccc3n2)ccc1Cl	2.1 µM	4.39 µM	3.09	11.2	2.16	4.74	1.78	3.49	1.91 µM	4.36 µM	2.37	6.2	3.75	88.5	3.08	10.1	2.96	8.47	2.21	5.38
COc1cc(Nc2ncc(-c3ccccc3)o2)cc(OC)c1OC	0.138 µM	–	1.38	> 25	0.77	17.4	5.08	> 25	6.29 µM	> 25 µM	> 6.86	> 25	1.05	> 25	3.94	24.9	1.66	> 25	2.84	> 25
NC(=O)c1ccc(-c2c3ccccc3cc3c2ccc2ccccc23)cc1	3.1 µM	14 µM	1.65	18.1	2.12	7.48	5.22	82.4	4.99 µM	54 µM	9.35	> 100	5.79	29.7	1.94	6.98	4.7	24.7	10.7	84.4
O=C(N/N=C\c1cc(Cl)ccc1O)N/N=C/c1cc(Cl)ccc1O	6.41 µM	> 100 µM	2.48	> 100	> 100	> 100	3.34	> 100	34.3 µM	> 100 µM	7.83	> 100	0.871	> 100	2.12	> 100	0.521	> 100	2.34	> 100
